In the series the target is SNHG14. The conditions noted are these: ASO.

This passage reports target mRNA inhibition results from the OligoGym collection.

After the bases stand the sugars from the 5' end (letter, count) and the backbone: PS all phosphorothioate, else s phosphorothioate and o phosphodiester by linkage. Methylation of C is not given here. l = locked nucleic acid (LNA); d = 2'-deoxy (DNA)

For the sequence “GTTTCCATCTACTATTAAT (sugars ldldddddddddddldlll, PS)”, the target mRNA inhibition (Human Neuronal Cell, 7.5 µM) came to 44%. The same measure, in the same setting: for “GTTTCCATCTACTATTAAT (sugars llldlddddddddldddll, PS)” the value was 50%. The same measure, in the same setting: the figure for “CTGTATACACCATCCCA (sugars ldlddddddddldddll, PS)” is 52%; for “CTGTTTATACCCTTTCCA (sugars l1 d15 l2, PS)” it is 47%. Still for that read-out and setting: the figure for “CAAAGATCATTCTCAAC (sugars l2 d1 l1 d7 l6, PS)” is 26%; for “AGCAACATTATTAACCACC (sugars lddlldddddddlddldll, PS)” it is 46%. In the case of ACTCTTTAGATTCATC (sugars l2 d10 l4, PS), the target mRNA inhibition is, setting by setting: (Human Neuronal Cell, 0.2 µM) 53%; (Human Neuronal Cell, 1 µM) 44%. Regarding “CAACATTATTAACCACCTT (sugars lldllddddddddddldll, PS)”, the target mRNA inhibition (Human Neuronal Cell, 7.5 µM) was found to be 53%. Take “TGTCTATTCTCTTCATT (sugars l4 d11 l2, PS)”: the target mRNA inhibition was 37% (Human Neuronal Cell, 0.2 µM) and 30% (Human Neuronal Cell, 1 µM). Turning to TTTTAACCAGAGTGGC (sugars l1 d11 l4, PS), the target mRNA inhibition (Human Neuronal Cell, 7.5 µM) is 53%. Take “TTATAGCCATTCTATCT (sugars l1 d1 l3 d10 l2, PS)”: where the note is “Human Neuronal Cell, 7.5 µM”, the target mRNA inhibition stood at 67%. Turning to “ATATACCCAAAGGCACCT (sugars l3 d12 l3, PS)”, the target mRNA inhibition is, setting by setting: (Human Neuronal Cell, 0.2 µM) -13%; (Human Neuronal Cell, 1 µM) 15%; (Human Neuronal Cell, 5 µM) 21%. “TATCTATTTAATTTACAC (sugars l3 d12 l3, PS)”: the target mRNA inhibition reads like this: (Human Neuronal Cell, 0.2 µM) 8%; (Human Neuronal Cell, 1 µM) 0%. On the same counts, the results for TCTACCCTAAATTCCC (sugars l2 d11 l3, PS) are 14% and 29%. In the same order, the values of ATTCAGTTACCAACTA (sugars l3 d10 l3, PS) are 39% and 38%. As for “GTTTCCATCTACTATTAA (sugars ldddldddddddldllll, PS)”, for the setting “Human Neuronal Cell, 7.5 µM”, the target mRNA inhibition was found to be 62%. The same measure, in the same setting: for “TCTTTCCATTTATTTCCATT (sugars l2 d4 l1 d11 l2, PS)” the value was 48%; for “TTTTTTTCTTACTATCTTCA (sugars ldlldddddddddlddldll, PS)”, 59%. Regarding “CTACACATCTTGTATAC (sugars l3 d11 l3, PS)”, the target mRNA inhibition by setting is: (Human Neuronal Cell, 0.2 µM) 40%; (Human Neuronal Cell, 1 µM) 52%.

On to “AGCAACATTATTAACCACC (sugars l2 d11 l1 d3 l2, PS)”, for which the target mRNA inhibition (Human Neuronal Cell, 7.5 µM) came to 48%.

As to “ATCATTCTCAACAATTA (sugars l4 d11 l2, PS)”, the target mRNA inhibition turned out to be 59% (Human Neuronal Cell, 0.2 µM) and 70% (Human Neuronal Cell, 1 µM). In the same order, the values of “CTTCTTGTTTATCCCAA (sugars l2 d11 l4, PS)” are 57% and 68%. Take “CTGTATACACCATCCCA (sugars ldddlddddddldddll, PS)”: under “Human Neuronal Cell, 7.5 µM”, the target mRNA inhibition was 29%.

As for CTAAATAGATTCCACT (sugars l2 d10 l4, PS), the target mRNA inhibition reads like this: (Human Neuronal Cell, 0.2 µM) 26%; (Human Neuronal Cell, 1 µM) 52%.

Consider “TAAAATTATTTATACACCAT (sugars l7 d6 l1 d3 l3, PS)”, for which the target mRNA inhibition (Human Neuronal Cell, 7.5 µM) turned out to be 51%. With GCTAATTTAAATTTCC (sugars l4 d10 l2, PS), the target mRNA inhibition was 49% (Human Neuronal Cell, 0.2 µM) and 67% (Human Neuronal Cell, 1 µM).

On to “AAATTATTTATACACCATCA (sugars lldlldldddddddldddll, PS)”, for which the target mRNA inhibition (Human Neuronal Cell, 7.5 µM) stood at 71%. With “CACACCTATTATATAAT (sugars l4 d11 l2, PS)”, the target mRNA inhibition runs as follows: (Human Neuronal Cell, 0.2 µM) 2%; (Human Neuronal Cell, 1 µM) 18%.

Turning to TTTACTCTGCAATACA (sugars l2 d10 l4, PS), the target mRNA inhibition came out at 45% (Human Neuronal Cell, 0.2 µM) and 60% (Human Neuronal Cell, 1 µM). In the case of “ATCTCATGACCACCTAA (sugars ldlddddddddddldll, PS)”, the target mRNA inhibition (Human Neuronal Cell, 7.5 µM) is 61%. With GCTTCATATTTCTCCA (sugars l2 d11 l3, PS), the target mRNA inhibition (Human Neuronal Cell, 1 µM) is 63%.

Regarding CCTACATCTCATACTT (sugars l2 d10 l4, PS), the target mRNA inhibition (Mouse Primary Neuronal Cell, 0.005 µM) is 96.5%. Regarding CTTTCCAATGAATCTA (sugars l2 d10 l4, PS), the target mRNA inhibition (Human Neuronal Cell, 0.2 µM) came to 39% and the target mRNA inhibition (Human Neuronal Cell, 1 µM) came to 55%.

For the sequence “TTATAGCCATTCTATCT (sugars l1 d10 l1 d1 l4, PS)”, the target mRNA inhibition (Human Neuronal Cell, 7.5 µM) is 53%. Consider TATCAATATCTTCTCA (sugars l2 d10 l4, PS), for which the target mRNA inhibition by setting is: (Human Neuronal Cell, 0.2 µM) 46%; (Human Neuronal Cell, 1 µM) 61%. On the same counts, the results for “CTTGTCAAATCATTTCT (sugars l4 d11 l2, PS)” are 47% and 41%.

On to TCTCATGACCACCTAA (sugars l2 d10 l4, PS), for which the target mRNA inhibition (Human Neuronal Cell, 0.2 µM) is 39% and the target mRNA inhibition (Human Neuronal Cell, 1 µM) came out at 54%.

Regarding “GTTTATACCCTTTCCAAT (sugars l1 d1 l1 d13 l2, PS)”, the target mRNA inhibition (Human Neuronal Cell, 7.5 µM) is 56%. In the case of “TTTATACCTTTCTTTAACCC (sugars l1 d14 l1 d2 l2, PS)”, for the setting “Human Neuronal Cell, 7.5 µM”, the target mRNA inhibition was found to be 53%. With CACATCTTGTATACAA (sugars l3 d10 l3, PS), the target mRNA inhibition reads like this: (Human Neuronal Cell, 0.2 µM) 52%; (Human Neuronal Cell, 1 µM) 61%. For the sequence “ATTTATTTCCATTTATTTTC (sugars ldllddddddddddlddlll, PS)”, the target mRNA inhibition (Human Neuronal Cell, 7.5 µM) came out at 60%.

For the sequence “TTTACACTTAATTATACTTC (sugars ldlllddddddddlllddll, PS)”, under “Human Neuronal Cell, 7.5 µM”, the target mRNA inhibition came out at 48%. Consider “TATCTTTCCATTTATTTCC (sugars l1 d2 l2 d12 l2, PS)”, for which the target mRNA inhibition (Human Neuronal Cell, 7.5 µM) was 47%. Turning to “CAGCTTTTAACCAGAGTG (sugars l3 d13 l2, PS)”, for the setting “Human Neuronal Cell, 7.5 µM”, the target mRNA inhibition amounted to 76%.

On to “TATCTTTCCATTTATTTCCA (sugars lddddlddddddddllddll, PS)”, for which the target mRNA inhibition (Human Neuronal Cell, 7.5 µM) was 50%. Still for that read-out and setting: the figure for “TTGATTCAATTCCCTTA (sugars lldddddddddldldll, PS)” is 61%. As to “GTTCTCTTTATTTCTTCT (sugars l2 d12 l4, PS)”, the target mRNA inhibition runs as follows: (Human Neuronal Cell, 0.2 µM) 31%; (Human Neuronal Cell, 1 µM) 42%. With “TAAAATTATTTATACACCA (sugars ldddllddddddllddlll, PS)”, under “Human Neuronal Cell, 7.5 µM”, the target mRNA inhibition stood at 55%. With “TTATAGCCATTCTATCT (sugars l2 d13 l2, PS)”, the target mRNA inhibition (Human Neuronal Cell, 7.5 µM) worked out at 48%.

“TATTGATTCAATTCCCT (sugars l2 d12 l3, PS)”: the target mRNA inhibition (Human Neuronal Cell, 7.5 µM) was 59%. The same measure, in the same setting: for “TTATAGCCATTCTATCT (sugars l2 d9 l1 d2 l3, PS)” the value was 53%. Regarding CACTAGTACTCTTATT (sugars l4 d10 l2, PS), the target mRNA inhibition was found to be 43% (Human Neuronal Cell, 0.2 µM) and 38% (Human Neuronal Cell, 1 µM). Consider “CAAAGATCATTCTCAACA (sugars l2 d1 l1 d9 l5, PS)”, for which, for the setting “Human Neuronal Cell, 7.5 µM”, the target mRNA inhibition came to 69%.

Turning to “TTTATCTCATGACCACC (sugars l2 d11 l4, PS)”, the target mRNA inhibition by setting is: (Human Neuronal Cell, 0.2 µM) 54%; (Human Neuronal Cell, 1 µM) 56%. For “CTGTATACACCATCCCA (sugars l1 d14 l2, PS)”, the target mRNA inhibition (Human Neuronal Cell, 7.5 µM) amounted to 49%. Still for that read-out and setting: the figure for “TTTATCAATATCTTCTCAC (sugars lldldlddddddddldlll, PS)” is 63%. With “GCACATTCTTTCTATACC (sugars l1 d1 l2 d11 l3, PS)”, the target mRNA inhibition (Human Neuronal Cell, 7.5 µM) turned out to be 64%.
